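Assay format: 96-well plates, 48-hour exposure. Abbreviation: GI50, concentration required for 50% inhibition of growth.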 The source made the active and inactive calls. Cut-off read from the data, not from the text of the source: active = GI50 up to about 1.1 µM and inactive = higher.
Experiments:
Assay in all cases: NCI anticancer screen, dose series, 48 h
[1] = test system: MOLT-4
[2] = test system: EKVX
[3] = test system: COLO 205
[4] = test system: OVCAR-3
[5] = test system: MDA-MB-435
[6] = test system: NCI-H460
[7] = test system: NCI/ADR-RES
[8] = test system: SK-MEL-28
[9] = test system: RPMI-8226
[10] = test system: MCF7
[11] = test system: NCI-H23
[12] = test system: SF-295
[13] = test system: MDA-MB-231
[14] = test system: Hs-578T
[15] = test system: OVCAR-8
[16] = test system: TK-10
[17] = test system: HOP-92
[18] = test system: M14
[19] = test system: SK-MEL-2
[20] = test system: OVCAR-5
[21] = test system: HCC 2998
[22] = test system: PC-3
[23] = test system: SF-268
[24] = test system: HT-29
[25] = test system: OVCAR-4
[26] = test system: Malme-3M
[27] = test system: HCT-116
[28] = test system: NCI-H226
[29] = test system: NCI-H522
[30] = test system: SW-620
[31] = test system: UACC-62
[32] = test system: HCT-15
[33] = test system: CAKI-1
[34] = test system: ACHN
[35] = test system: HL-60
[36] = test system: T47D
[37] = test system: BT-549
[38] = test system: SK-OV-3
[39] = test system: DU-145
[40] = test system: A498
[41] = test system: SN12C
[42] = test system: SF-539
[43] = test system: UO-31
[44] = test system: IGROV-1
[45] = test system: CCRF-CEM
[46] = test system: SK-MEL-5
[47] = test system: A549
[48] = test system: MDA-N
[49] = test system: UACC-257
[50] = test system: U-251
[51] = test system: 786-0
[52] = test system: SNB-75
[53] = test system: SNB-19
[54] = test system: KM12
[55] = test system: LOX IMVI
[56] = test system: K562
[57] = test system: HOP-62
[58] = test system: RXF 393

COC(C)C(O)(C(=O)OCC1=CCN2CCC(O)C12)C(C)(C)O (stereo unspecified)
GI50 [1]: > 100 µM (inactive) | GI50 [2]: > 100 µM (inactive) | GI50 [3]: > 100 µM (inactive) | GI50 [4]: > 100 µM (inactive) | GI50 [5]: > 100 µM (inactive) | GI50 [6]: > 100 µM (inactive) | GI50 [7]: > 100 µM (inactive) | GI50 [8]: > 100 µM (inactive) | GI50 [9]: > 100 µM (inactive) | GI50 [10]: > 100 µM (inactive) | GI50 [11]: > 100 µM (inactive) | GI50 [12]: > 100 µM (inactive) | GI50 [13]: > 100 µM (inactive) | GI50 [14]: > 100 µM (inactive) | GI50 [15]: > 100 µM (inactive) | GI50 [16]: > 100 µM (inactive) | GI50 [17]: > 100 µM (inactive) | GI50 [18]: > 100 µM (inactive) | GI50 [19]: > 100 µM (inactive) | GI50 [20]: > 100 µM (inactive) | GI50 [21]: > 100 µM (inactive) | GI50 [22]: > 100 µM (inactive) | GI50 [23]: > 100 µM (inactive) | GI50 [24]: > 100 µM (inactive) | GI50 [25]: > 100 µM (inactive) | GI50 [26]: > 100 µM (inactive) | GI50 [27]: > 100 µM (inactive) | GI50 [28]: > 100 µM (inactive) | GI50 [29]: > 100 µM (inactive) | GI50 [30]: > 100 µM (inactive) | GI50 [31]: > 100 µM (inactive) | GI50 [32]: > 100 µM | GI50 [33]: > 100 µM (inactive) | GI50 [34]: > 100 µM (inactive) | GI50 [35]: > 100 µM (inactive) | GI50 [36]: > 100 µM (inactive) | GI50 [37]: > 100 µM (inactive) | GI50 [38]: > 100 µM (inactive) | GI50 [39]: > 100 µM (inactive) | GI50 [40]: > 100 µM (inactive) | GI50 [41]: > 100 µM (inactive) | GI50 [42]: > 100 µM (inactive) | GI50 [43]: > 100 µM (inactive) | GI50 [44]: > 100 µM (inactive) | GI50 [45]: > 100 µM (inactive) | GI50 [46]: > 100 µM (inactive) | GI50 [47]: > 100 µM (inactive) | GI50 [48]: > 100 µM (inactive) | GI50 [49]: > 100 µM (inactive) | GI50 [50]: > 100 µM (inactive) | GI50 [51]: > 100 µM (inactive) | GI50 [52]: > 100 µM (inactive) | GI50 [53]: > 100 µM (inactive) | GI50 [54]: > 100 µM (inactive) | GI50 [55]: > 100 µM (inactive)

O=[N+]([O-])c1ccc2c(c1)nc(Cc1ccccc1)n2C[C@@H]1CCCN2CCCCC12 (stereo partly specified)
GI50 [1]: 17.4 µM (inactive) | GI50 [2]: 17.1 µM (inactive) | GI50 [3]: 17.3 µM (inactive) | GI50 [4]: 41.5 µM (inactive) | GI50 [5]: 17.2 µM (inactive) | GI50 [6]: 41.4 µM (inactive) | GI50 [7]: 22.9 µM (inactive) | GI50 [8]: 18.6 µM (inactive) | GI50 [10]: 41.1 µM (inactive) | GI50 [11]: 27.5 µM (inactive) | GI50 [12]: 18 µM (inactive) | GI50 [13]: 31.3 µM (inactive) | GI50 [14]: 38.5 µM (inactive) | GI50 [15]: 34.9 µM (inactive) | GI50 [16]: 37.5 µM (inactive) | GI50 [17]: 3.71 µM (inactive) | GI50 [56]: 18.7 µM (inactive) | GI50 [18]: 18.2 µM (inactive) | GI50 [19]: 20.9 µM (inactive) | GI50 [20]: 28.5 µM (inactive) | GI50 [21]: 12.9 µM (inactive) | GI50 [22]: 37.3 µM (inactive) | GI50 [23]: 45.8 µM (inactive) | GI50 [24]: 17.5 µM (inactive) | GI50 [25]: 27.4 µM (inactive) | GI50 [26]: 14.2 µM (inactive) | GI50 [27]: 33.7 µM (inactive) | GI50 [28]: 89.9 µM (inactive) | GI50 [29]: 21.6 µM (inactive) | GI50 [30]: 40.4 µM (inactive) | GI50 [31]: 19.5 µM (inactive) | GI50 [32]: 36.9 µM | GI50 [33]: 28.3 µM (inactive) | GI50 [34]: 57.8 µM (inactive) | GI50 [35]: < 0.01 µM (active) | GI50 [36]: 39.4 µM (inactive) | GI50 [37]: 26.7 µM (inactive) | GI50 [38]: 34.4 µM (inactive) | GI50 [57]: > 100 µM (inactive) | GI50 [39]: 60.5 µM (inactive) | GI50 [40]: 13.4 µM (inactive) | GI50 [41]: 48 µM (inactive) | GI50 [43]: 6.49 µM (inactive) | GI50 [44]: 25.8 µM (inactive) | GI50 [45]: 17.6 µM (inactive) | GI50 [46]: 16.5 µM (inactive) | GI50 [47]: 51.2 µM (inactive) | GI50 [48]: 20.6 µM (inactive) | GI50 [49]: 15.8 µM (inactive) | GI50 [50]: 44.7 µM (inactive) | GI50 [51]: 22.3 µM (inactive) | GI50 [52]: 63.5 µM (inactive) | GI50 [53]: 56.4 µM (inactive) | GI50 [54]: 21.3 µM (inactive) | GI50 [58]: 19.4 µM (inactive) | GI50 [55]: 20.4 µM (inactive)

From ChEMBL document CHEMBL1201862, “PubChem BioAssay data set” (2004)
